Assay results from patent publication EP1954678B1, “NOVEL NK1 AND NK2 ANTAGONISTS” (Abbott Products GmbH, priority 2005, dated 2007).

How the values were obtained:
[1] = target: T1, human NK1 receptors (Homo sapiens, UniProt P25103); test: Binding of the test substances to NK1 receptors in vitro ([3H]-Substance P displacement, CHO cell membranes); settings: [3H]-Substance P as ligand; membranes of CHO cells expressing the human NK1 receptor; Ki calculated from IC50; read-out: pKi (NK1) (converted)
T1 construct: expressed in transfected cells; host or cells: CHO cells (membrane preparation)
T1 sequence (P25103 whole entry): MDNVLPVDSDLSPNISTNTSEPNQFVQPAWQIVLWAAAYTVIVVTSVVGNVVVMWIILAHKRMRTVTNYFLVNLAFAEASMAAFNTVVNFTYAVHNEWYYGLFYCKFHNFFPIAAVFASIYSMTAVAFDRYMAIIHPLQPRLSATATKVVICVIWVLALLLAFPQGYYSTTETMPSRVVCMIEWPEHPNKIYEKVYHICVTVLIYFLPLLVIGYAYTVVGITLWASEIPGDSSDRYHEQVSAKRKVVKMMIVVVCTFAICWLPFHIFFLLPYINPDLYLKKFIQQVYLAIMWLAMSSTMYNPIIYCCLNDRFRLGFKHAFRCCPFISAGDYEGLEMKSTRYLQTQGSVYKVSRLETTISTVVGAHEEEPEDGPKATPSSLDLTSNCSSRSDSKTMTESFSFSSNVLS
Experimental: In The Netherlands, the affinity of the test substances to human NK1 receptors was measured in vitro.
The receptor binding studies were performed with [^3H]-Substance P as ligand. For the binding test, different samples of a membrane preparation of CHO cells (= egg cells of the Chinese hamster, Chinese hamster oocytes), which express the human NK1 receptor ("Accession Number" of the associated nucleic acid sequence = M74290; "Accession Number" of the associated protein sequence = P25103; cf. Takeda, Y.; Chou, K. B., Takeda, J.; Sachais, B.S. and Krause, J. E; Biochemical and Biophysical Research Communications, 179(3) (1991) 1232 - 1240), were incubated with a solution of the marked ligand, with the incubation mixtures containing no test substance or additions of different concentrations of test substance. Then, separation of bound and free ligands was performed in each of the samples with the aid of glass-fibre filtration. The fraction remaining in the filter was washed several times with buffer solution and then the radioactivity of the fraction remaining in the filter was measured using a beta scintillation counter.
For the compounds of Examples 1 to 14, that concentration which effects half maximum displacement of the bound ligand was determined as IC50 of the respective test substance. From this, the corresponding inhibition constant (Ki value) of the test substance was calculated, and was stated as the negative common logarithm of the Ki value (= pKi value). The pKi value is a measurement of the affinity of the test substances to human NK1 receptors.

[2] = target: T2, human NK2 receptors (Homo sapiens, UniProt P21452); test: Binding of the test substances to NK2 receptors in vitro ([3H]-SR 48968 displacement, CHO cell membranes); settings: [3H]-SR 48968 as ligand; membranes of CHO cells expressing the human NK2 receptor; 90 min incubation; Ki calculated from IC50; read-out: pKi (NK2) (converted)
T2 construct: expressed in transfected cells; host or cells: CHO cells (membrane preparation)
T2 sequence (P21452 1-398): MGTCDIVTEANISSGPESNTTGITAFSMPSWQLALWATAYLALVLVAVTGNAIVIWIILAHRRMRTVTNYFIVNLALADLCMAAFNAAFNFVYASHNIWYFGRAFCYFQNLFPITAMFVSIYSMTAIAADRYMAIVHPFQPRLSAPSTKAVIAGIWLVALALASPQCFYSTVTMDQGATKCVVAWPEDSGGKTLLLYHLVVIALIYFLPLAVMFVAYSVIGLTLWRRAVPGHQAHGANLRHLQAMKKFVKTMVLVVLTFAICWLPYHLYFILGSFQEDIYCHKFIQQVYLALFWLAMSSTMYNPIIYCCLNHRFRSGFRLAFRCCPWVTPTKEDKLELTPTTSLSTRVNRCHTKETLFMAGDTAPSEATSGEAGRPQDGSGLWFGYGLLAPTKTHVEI
Experimental: The affinity of the test substances to human NK2 receptors was measured in vitro. The ability of the test substances to displace the selective NK2 receptor antagonist SR 48968 (= saredutant) used as reference ligand from its corresponding bond was determined.
The receptor binding studies were carried out with radioactively marked [^3H]-SR 48968 (from Amersham) as ligand. For the binding test, different samples of a membrane preparation of CHO cells (= egg cells of the Chinese hamster, Chinese hamster oocytes), which express the human NK2 receptor (for preparation, see N.P. Gerard et al., Journal of Biological Chemistry 265/33 (1990) 20455-20462), were incubated for 90 minutes (= min.) with a solution of the marked ligand, with the incubation mixtures containing no test substance or additions of different concentrations of test substance. Then in each case the membrane-bound ligands in the samples were separated from free ligands by filtration. The fraction remaining in the filter was washed several times with buffer solution, before its radioactivity was measured using a liquid scintillation counter. That concentration which effects half-maximum displacement of the bound reference ligand was determined as IC50 of the respective test substance. The inhibition constant (Ki value) of the test substance was calculated from the respective IC50 value, and was stated as the negative logarithmised value thereof (pKi).
If several measurements were performed, the average thereof was listed each time. The pKi value is a measurement of the affinity of the test substances to human NK2 receptors.

[3] = target: T3, cloned human NK1 receptors (Homo sapiens, UniProt P25103); test: Ca2+ measurements using FLIPR for NK1 activity in CHO cells; assay type: cell-based; settings: substance P 10^-8 M as agonist; compound applied 7 min before; pA2 calculated from IC50
T3 construct: expressed in transfected cells
T3 sequence (P25103 whole entry): as the sequence (P25103 whole entry) above
Source text: (§1) The NK receptor is coupled to Gq.
(§2) All steps were done under sterile conditions. […] The results are summarized in table 5: Table 5: pA2 data for NK1 and NK2: […]

[4] = target: T4, cloned human NK2 receptors (Homo sapiens, UniProt P21452); test: Ca2+ measurements using FLIPR for NK2 activity in CHO cells; assay type: cell-based; settings: NKA 10^-7 M as agonist; compound applied 7 min before; pA2 calculated from IC50
T4 construct: expressed in transfected cells
T4 sequence (P21452 1-398): T2 sequence (P21452 1-398)
Source text: as §1, §2

Row | Ki [1] [nM] | Ki [2] [nM] | Kb [3] [nM] | Kb [4] [nM] | pA2 (NK1) [3] | pA2 (NK2) [4] | SMILES
1 | 1.58 | 63.1 |  |  |  |  | CN(C[C@@H](CCN1CCN([C@@H](c2ccco2)[C@H](O)[C@H](O)[C@H](O)CO)CC1)c1ccc(Cl)c(Cl)c1)C(=O)c1cc(C#N)cc2ccccc12 [Compound 3, 3-cyano-N-[(2S)-2-(3,4-dichlorophenyl)-4-{4-[(1R,2S,3S,4R)-1-(2-furyl)-2,3,4,5-tetrahydroxypentyl]piperazin-1-yl}butyl]-N-methyl-1-naphthamide]
2 | 2.51 | 126 |  |  |  |  | CN(C[C@@H](CCN1CCN([C@@H](c2ccsc2)[C@H](O)[C@H](O)[C@H](O)CO)CC1)c1ccc(Cl)c(Cl)c1)C(=O)c1cc(C#N)cc2ccccc12 [Compound 4, 3-cyano-N-[(2S)-2-(3,4-dichlorophenyl)-4-{4-[(1S,2S,3S,4R)-2,3,4,5-tetrahydroxy-1-(3-thienyl)pentyl]piperazin-1-yl}butyl]-N-methyl-1-naphthamide]
3 | 10 | 100 |  |  |  |  | CN(C[C@@H](CCN1CCN([C@@H](c2ccoc2)[C@H](O)CO)CC1)c1ccc(Cl)c(Cl)c1)C(=O)c1cc(C#N)cc2ccccc12 [Compound 12, 3-cyano-N-[(2S)-2-(3,4-dichlorophenyl)-4-{4-[(1S,2S)-1-(3-furyl)-2,3-dihydroxypropyl]piperazin-1-yl}butyl]-N-methyl-1-naphthamide]
4 | 5.01 | 12.6 | 0.398 | 3.16 |  |  | CN(C[C@@H](CCN1CCN(C(c2ccco2)C(O)CO)CC1)c1ccc(Cl)c(Cl)c1)C(=O)c1cc(C#N)cc2ccccc12 (stereo partly drawn) [Compound 14, 3-cyano-N-[(2S)-2-(3,4-dichlorophenyl)-4-{4-[1-(2-furyl)-2,3-dihydroxypropyl]piperazin-1-yl}butyl]-N-methyl-1-naphthamide]
5 |  |  |  |  | 9,3 | 9,1 | COc1ccc([C@@H]([C@H](O)CO)N2CCN(CC[C@H](CN(C)C(=O)c3cc(C#N)cc4ccccc34)c3ccc(Cl)c(Cl)c3)CC2)cc1 [Compound 16, 3-cyano-N-[(2)-2-(3,4-dichlorophenyl)-4-{4-[(1S,2S)-2,3-dihydroxy-1-(4-methoxyohenyl)propyl]piperazin-1-yl}butyl]-N-methyl-1-naphthamide]
6 | 31.6 | 3160 | 20 | 20 |  |  | CN(C[C@@H](CCN1CCN([C@@H](c2cc3ccccc3o2)[C@H](O)CO)CC1)c1ccc(Cl)c(Cl)c1)C(=O)c1cc(C#N)cc2ccccc12 [Compound 17, N-[(2S)-4-{4-[(1R,2S)-1-(1-benzofuran-2-yl)-2,3-dihydroxypropyl]piperazin-1-yl}-2-(3,4-dichlorophenyl)butyl]-3-cyano-N-methyl-1-naphthamide]
7 | 3.16 | 158 | 6.31 | 2.51 |  |  | CN(C[C@@H](CCN1CCN([C@@H](c2ccc(Cl)s2)[C@H](O)CO)CC1)c1ccc(Cl)c(Cl)c1)C(=O)c1cc(C#N)cc2ccccc12 [Compound 18, N-[(2S)-4-{4-[(1R,2S)-1-(5-chloro-2-thienyl)-2,3-dihydroxypropyl]piperazin-1-yl}-2-(3,4-dichlorophenyl)butyl]-3-cyano-N-methyl-1-naphthamide]
8 | 2 | 398 | 0.794 | 0.316 |  |  | CN(C[C@@H](CCN1CCN([C@@H](c2ccc3c(c2)OCO3)[C@H](O)CO)CC1)c1ccc(Cl)c(Cl)c1)C(=O)c1cc(C#N)cc2ccccc12 [Compound 21, N-[(2S)-4-{4-[(1S,2S)-1-(1,3-benzodioxol-5-yl)-2,3-dihydroxypropyl]piperazin-1-yl}-2-(3,4-dichlorophenyl)butyl]-3-cyano-N-methyl-1-naphthamide]
9 | 3.98 | 1000 | 7.94 | 3.16 |  |  | CN(C[C@@H](CCN1CCN([C@@H](c2cc3ccccc3s2)[C@H](O)CO)CC1)c1ccc(Cl)c(Cl)c1)C(=O)c1cc(C#N)cc2ccccc12 [Compound 22, N-[(2S)-4-{4-[(1R,2S)-1-(1-benzothien-2-yl)-2,3-dihydroxypropyl]piperazin-1-yl}-2-(3,4-dichlorophenyl)butyl]-3-cyano-N-methyl-1-naphthamide]
10 |  |  |  |  | 8,1 | 7,8 | CN(CC(CCN1CCN(C(Cc2ccccc2)C(O)CO)CC1)c1ccc(Cl)c(Cl)c1)C(=O)c1cc(C#N)cc2ccccc12 (stereo not drawn) [Compound 24]
11 | 7.94 | 39.8 | 3.16 | 1 |  |  | CN(C[C@@H](CCN1CCN(C(CO)c2ccco2)CC1)c1ccc(Cl)c(Cl)c1)C(=O)c1cc(C#N)cc2ccccc12 (stereo partly drawn) [Compound 25, 3-cyano-N-[(2S)-2-(3,4-dichlorophenyl)-4-{4-[1-(2-furyl)-2-hydroxyethyl]piperazin-1-yl}butyl]-N-methyl-1-naphthamide]
12 |  |  |  |  | 8,0 | 7,4 | CC(=O)OCC(O)C(Cc1ccccc1)N1CCN(CCC(CN(C)C(=O)c2cc(C#N)cc3ccccc23)c2ccc(Cl)c(Cl)c2)CC1 (stereo not drawn) [Compound 26]
13 |  |  |  |  | 9,2 | 8,1 | CC(=O)OC[C@@H](OC(C)=O)[C@H](c1ccco1)N1CCN(CC[C@H](CN(C)C(=O)c2cc(C#N)cc3ccccc23)c2ccc(Cl)c(Cl)c2)CC1 [Compound 27, (2S,3R)-2-(acetyloxy)-3-{4-[(3S)-4-[3-cyano-1-naphthoyl)(methyl)amino]-3-(3,4-dichlorophenyl)butyl]piperazin-1-yl}-3-(2-furyl)propyl acetate]
14 | 12.6 | 50.1 | 2 | 25.1 |  |  | CN(C[C@@H](CCN1CCN(C(CO)c2ccco2)CC1)c1ccc(Cl)c(Cl)c1)C(=O)c1cc(C#N)cc2ccccc12 (stereo partly drawn) [Compound 28, 3-cyano-N-[(2S)-2-(3,4-dichlorophenyl)-4-{4-[1-(2-furyl)-2-hydroxyethyl]piperazin-1-yl}butyl]-N-methyl-1-naphthamide]
